# Assay results taken from patent US20210355104A1, “ADENOSINE RECEPTOR BINDING COMPOUNDS” (Nikang Therapeuticsm Inc., priority 2018, published 2021).
# “And” between values parts separate entries of the source, which are not always exact repeats. Equal values may be shown once.
# Target: Adenosine A2A receptor (Homo sapiens, UniProt P29274)
# Test: cAMP assay in 293A cells stably expressing the adenosine A2A receptor (CGS21680 stimulation, HTRF)
# Assay type: cell-based
# Set-up: expressed in transfected cells; host or cells: 293A cells (Invitrogen, Cat# R705-07) infected with A2A-expressing lentivirus (custom packaged by Biosettia), puromycin selected
# Settings: 293A-A2AR cells, 0.1% BSA, 1 uM CGS; read-out: cAMP (nM) 0.1% BSA, 1 uM CGS
# Adenosine A2A receptor, sequence (P29274 whole entry): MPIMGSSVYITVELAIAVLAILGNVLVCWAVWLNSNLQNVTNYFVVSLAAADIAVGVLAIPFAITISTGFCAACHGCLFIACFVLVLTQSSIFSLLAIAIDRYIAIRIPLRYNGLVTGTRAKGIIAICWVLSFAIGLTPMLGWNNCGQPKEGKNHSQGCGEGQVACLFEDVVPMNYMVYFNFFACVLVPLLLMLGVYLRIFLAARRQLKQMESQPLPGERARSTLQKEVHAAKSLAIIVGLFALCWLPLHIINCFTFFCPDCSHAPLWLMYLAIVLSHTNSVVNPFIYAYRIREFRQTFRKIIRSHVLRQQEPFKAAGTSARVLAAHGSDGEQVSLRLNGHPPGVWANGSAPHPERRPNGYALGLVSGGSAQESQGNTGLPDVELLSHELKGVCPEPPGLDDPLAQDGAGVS
row,SMILES,IC50
1,"Cc1cc(-c2c(OCc3ncc(C(C)(C)O)n3C)nc(N)nc2-c2ccc(F)cc2)cc(C(F)F)n1 [Example 378, 2-(2-(((2-amino-5-(2-(difluoromethyl)-6-methylpyridin-4-yl)-6-(4-fluorophenyl)pyrimidin-4-yl)oxy)methyl)-1-methyl-1H-imidazol-5-yl)propan-2-ol]",430 nM and 173 nM and 247 nM
2,"Cc1cc(-c2c(OCc3ccc4ccccc4n3)nc(N)nc2-c2ccc(F)cc2)cc(C(F)F)n1 [Example 380, 5-(2-(difluoromethyl)-6-methylpyridin-4-yl)-4-(4-fluorophenyl)-6-(quinolin-2-ylmethoxy)pyrimidin-2-amine]",548 nM and 469 nM and 502 nM
3,"Cc1cc(-c2c(OCc3cccc(C(C)(C)N)n3)nc(N)nc2-c2ccc(F)cc2)cc(C(F)F)n1 [Example 383, 4-((6-(2-aminopropan-2-yl)pyridin-2-yl)methoxy)-5-(2-(difluoromethyl)-6-methylpyridin-4-yl)-6-(4-fluorophenyl)pyrimidin-2-amine]",1010 nM
4,"Cc1cc(-c2c(OCc3cn(C(C)(C)C(=O)O)cn3)nc(N)nc2-c2ccc(F)cc2)cc(C(F)F)n1 [Example 387, 2-(4-(((2-amino-5-(2-(difluoromethyl)-6-methylpyridin-4-yl)-6-(4-fluorophenyl)pyrimidin-4-yl)oxy)methyl)-1H-imidazol-1-yl)-2-methylpropanoic acid]",16300 nM
5,"Cc1cc(-c2c(OCc3ccn(C(C)(C)C(=O)O)n3)nc(N)nc2-c2ccc(F)cc2)cc(C(F)F)n1 [Example 388, 2-(3-(((2-amino-5-(2-(difluoromethyl)-6-methylpyridin-4-yl)-6-(4-fluorophenyl)pyrimidin-4-yl)oxy)methyl)-1H-pyrazol-1-yl)-2-methylpropanoic acid]",7660 nM
6,"Cc1cc(-c2c(OCc3cccc(C(C)(C)NCC(=O)O)n3)nc(N)nc2-c2ccc(F)cc2)cc(C(F)F)n1 [Example 393, (2-(6-(((2-amino-5-(2-(difluoromethyl)-6-methylpyridin-4-yl)-6-(4-fluorophenyl)pyrimidin-4-yl)oxy)methyl)pyridin-2-yl)propan-2-yl)glycine]",628 nM and 597 nM and 892 nM and 826 nM and 566 nM and 686 nM

# More lines, now with the values ahead:
row,IC50,SMILES
1,955 nM,"Cc1cc(-c2c(OCc3cc4ccccc4cn3)nc(N)nc2-c2ccc(F)cc2)cc(C(F)F)n1 [Example 382, 5-(2-(difluoromethyl)-6-methylpyridin-4-yl)-4-(4-fluorophenyl)-6-(isoquinolin-3-ylmethoxy)pyrimidin-2-amine]"
2,15400 nM,"Cc1cc(-c2c(OCc3cccc(C#CC(C)(C)C(=O)O)n3)nc(N)nc2-c2ccc(F)cc2)cc(C(F)F)n1 [Example 384, 4-(6-(((2-amino-5-(2-(difluoromethyl)-6-methylpyridin-4-yl)-6-(4-fluorophenyl)pyrimidin-4-yl)oxy)methyl)pyridin-2-yl)-2,2-dimethylbut-3-ynoic acid]"
3,3820 nM,"Cc1cc(-c2c(OCc3nccn3CCCC(=O)O)nc(N)nc2-c2ccc(F)cc2)cc(C(F)F)n1 [Example 386, 4-(2-(((2-amino-5-(2-(difluoromethyl)-6-methylpyridin-4-yl)-6-(4-fluorophenyl)pyrimidin-4-yl)oxy)methyl)-1H-imidazol-1-yl)butanoic acid]"
4,85 nM and 98 nM and 51 nM,"CCC(C#N)(CC)c1cccc(COc2nc(N)nc(-c3ccc(F)cc3)c2-c2cc(C)nc(C(F)F)c2)n1 [Example 390, 2-(6-(((2-amino-5-(2-(difluoromethyl)-6-methylpyridin-4-yl)-6-(4-fluorophenyl)pyrimidin-4-yl)oxy)methyl)pyridin-2-yl)-2-ethylbutanenitrile]"
5,865 nM and 496 nM,"Cc1cc(-c2c(OCc3cccc(C(C)(O)C(=O)O)n3)nc(N)nc2-c2ccc(F)cc2)cc(C(F)F)n1 (centres unmarked) [Example 394, 2-(6-(((2-amino-5-(2-(difluoromethyl)-6-methylpyridin-4-yl)-6-(4-fluorophenyl)pyrimidin-4-yl)oxy)methyl)pyridin-2-yl)-2-hydroxypropanoic acid]"
